# Patent EP0351685A2, “Process for preparing n15-alkyl derivatives of teicoplanin compounds” (GRUPPO LEPETIT S.p.A., priority 1988, dated 1990)
# Legend:
# Assay in all cases: In vitro antibacterial activity (MIC), standard agar-dilution test
# Type in all cases: cell-based
# [1] = test system: S. epidermidis ATCC 12228; conditions: Staphylococcus epidermidis, ATCC12228, inoculum about 10⁴ CFU/ml, 18-24 h at 37°C
# Procedure: (§1) Isosensitest broth (Oxoid) and Todd-Hewitt broth (Difco) are used for growing staphylococci and streptococci, respectively. Broth cultures are diluted so that the final inoculum is about 10⁴ colony forming units/ml (CFU/ml).
# [2] = test system: S. faecalis ATCC 7080; conditions: Enterococcus faecalis, ATCC7080, inoculum about 10⁴ CFU/ml, 18-24 h at 37°C
# Procedure: as §1
# [3] = test system: S. pneumoniae UC41; conditions: Streptococcus pneumoniae, inoculum about 10⁴ CFU/ml, 18-24 h at 37°C
# Procedure: as §1
# [4] = test system: S. pyogenes C203; conditions: Streptococcus pyogenes, inoculum about 10⁴ CFU/ml, 18-24 h at 37°C
# Procedure: as §1
# [5] = test system: S. aureus Tour; conditions: Staphylococcus aureus, inoculum about 10⁴ CFU/ml, 18-24 h at 37°C
# Procedure: as §1
# [6] = test system: S. haemolyticus L 602; conditions: Staphylococcus haemolyticus, L602, inoculum about 10⁴ CFU/ml, 18-24 h at 37°C
# Procedure: as §1
# [7] = test system: E. coli SKF 12140; conditions: Escherichia coli, SKF12140, inoculum about 10⁴ CFU/ml, 18-24 h at 37°C
# [8] = test system: P. vulgaris X19H ATCC 881; conditions: Proteus vulgaris, ATCC881, inoculum about 10⁴ CFU/ml, 18-24 h at 37°C
# [9] = test system: P. aeruginosa ISM; conditions: Pseudomonas aeruginosa, inoculum about 10⁴ CFU/ml, 18-24 h at 37°C
# [10] = S. aureus Tour + 30% bovine serum
MIC [1] [µg/mL],MIC [2] [µg/mL],MIC [3] [µg/mL],MIC [4] [µg/mL],"MIC [5, 10] [µg/mL]",MIC ([5]; S. aureus Tour) [µg/mL],MIC [7] [µg/mL],MIC [8] [µg/mL],MIC [9] [µg/mL],SMILES,MIC [6] [µg/mL]
0.03,0.12,0.12,0.06,0.25,0.06,> 128,> 128,> 128,CCNC1C(=O)NC2Cc3ccc(c(Cl)c3)Oc3cc4cc(c3O)Oc3ccc(cc3Cl)C(O)C3NC(=O)C(NC(=O)C4NC(=O)C(NC2=O)c2cc(O)cc(c2)Oc2cc1ccc2O)c1ccc(O)c(c1)-c1c(O)cc(O)cc1C(C(=O)O)NC3=O (stereo not shown) [Compound 9],0.25
0.03,0.25,0.06,0.12,0.5,0.06,> 128,> 128,> 128,O=C1NC2C(=O)NC3C(=O)NC4C(=O)NC(C(=O)NC(C(=O)O)c5cc(O)cc(O)c5-c5cc4ccc5O)C(O)c4ccc(c(Cl)c4)Oc4cc3cc(c4O)Oc3ccc(cc3Cl)CC1NC(=O)C(NC1CCCC1)c1ccc(O)c(c1)Oc1cc(O)cc2c1 (stereo not shown) [Compound 11],
